# From patent US20060140885A1, “Method of reducing oral tissue inflammation using magnolia extract” (priority 2004, published 2006)
# Test system: S. mutans
# Assay: Minimal Inhibitory Concentration (MIC) in vitro test against S. mutans
# Type: cell-based
# Description: The compositions of the present invention comprise an extract of magnolia. As referred to here, such an “extract” of magnolia is an extract from dried cortex, or bark, of a plant from the Magnoliaceae family, such as Magnolia officinalis, (hereinafter “magnolia”) or a synthetic or semi-synthetic equivalent of such an extract or an active component or compound thereof. […] It should be noted that any plant from the Magnoliaceae family is suitable for the present invention and may be used in alternate embodiments, preferably such that the extract comprises an antimicrobially effective concentration of a compound selected from the group consisting of magnolol, honokiol, tetrahydromagnolol, tetrahydrohonokiol, and mixtures thereof.
row,SMILES,bactericidal properties against S. mutans (MIC test)
1,C=CCc1ccc(O)c(-c2cc(CC=C)ccc2O)c1 [magnolol],bactericidal properties
2,C=CCc1ccc(O)c(-c2ccc(O)c(CC=C)c2)c1 [honokiol],bactericidal properties
3,CCCc1ccc(O)c(-c2ccc(O)c(CCC)c2)c1 [tetrahydrohonokiol],bactericidal properties
4,CCCc1ccc(O)c(-c2cc(CCC)ccc2O)c1 [tetrahydromagnolol],bactericidal properties
